{"source": "paper PMC9133015", "about": "(Nature Communications, 2022)", "assay_in_all_cases": "Kinase inhibitor specificity profiling (Reaction Biology Corporation)", "assay_type_in_all_cases": "biochemical", "set-up_in_all_cases": "% Enzyme Activity (relative to DMSO controls): concentration or dose not given beside the values", "key": {"[1]": {"target": "T1, panel of 370 protein kinases (Homo sapiens, UniProt Q15835)", "T1 construct": "purchased Reaction Biology Corporation (assay service)", "settings": "2 h, kinase GRK1; read-out: % Enzyme Activity (relative to DMSO controls)"}, "[2]": {"target": "T2, panel of 370 protein kinases (Homo sapiens, UniProt P41279)", "T2 construct": "purchased Reaction Biology Corporation (assay service)", "settings": "2 h, kinase COT1/MAP3K8; read-out: % Enzyme Activity (relative to DMSO controls)"}, "[3]": {"target": "T3, panel of 370 protein kinases (Homo sapiens, UniProt P04626)", "T3 construct": "purchased Reaction Biology Corporation (assay service)", "T3 sequence (P04626 23-1255)": "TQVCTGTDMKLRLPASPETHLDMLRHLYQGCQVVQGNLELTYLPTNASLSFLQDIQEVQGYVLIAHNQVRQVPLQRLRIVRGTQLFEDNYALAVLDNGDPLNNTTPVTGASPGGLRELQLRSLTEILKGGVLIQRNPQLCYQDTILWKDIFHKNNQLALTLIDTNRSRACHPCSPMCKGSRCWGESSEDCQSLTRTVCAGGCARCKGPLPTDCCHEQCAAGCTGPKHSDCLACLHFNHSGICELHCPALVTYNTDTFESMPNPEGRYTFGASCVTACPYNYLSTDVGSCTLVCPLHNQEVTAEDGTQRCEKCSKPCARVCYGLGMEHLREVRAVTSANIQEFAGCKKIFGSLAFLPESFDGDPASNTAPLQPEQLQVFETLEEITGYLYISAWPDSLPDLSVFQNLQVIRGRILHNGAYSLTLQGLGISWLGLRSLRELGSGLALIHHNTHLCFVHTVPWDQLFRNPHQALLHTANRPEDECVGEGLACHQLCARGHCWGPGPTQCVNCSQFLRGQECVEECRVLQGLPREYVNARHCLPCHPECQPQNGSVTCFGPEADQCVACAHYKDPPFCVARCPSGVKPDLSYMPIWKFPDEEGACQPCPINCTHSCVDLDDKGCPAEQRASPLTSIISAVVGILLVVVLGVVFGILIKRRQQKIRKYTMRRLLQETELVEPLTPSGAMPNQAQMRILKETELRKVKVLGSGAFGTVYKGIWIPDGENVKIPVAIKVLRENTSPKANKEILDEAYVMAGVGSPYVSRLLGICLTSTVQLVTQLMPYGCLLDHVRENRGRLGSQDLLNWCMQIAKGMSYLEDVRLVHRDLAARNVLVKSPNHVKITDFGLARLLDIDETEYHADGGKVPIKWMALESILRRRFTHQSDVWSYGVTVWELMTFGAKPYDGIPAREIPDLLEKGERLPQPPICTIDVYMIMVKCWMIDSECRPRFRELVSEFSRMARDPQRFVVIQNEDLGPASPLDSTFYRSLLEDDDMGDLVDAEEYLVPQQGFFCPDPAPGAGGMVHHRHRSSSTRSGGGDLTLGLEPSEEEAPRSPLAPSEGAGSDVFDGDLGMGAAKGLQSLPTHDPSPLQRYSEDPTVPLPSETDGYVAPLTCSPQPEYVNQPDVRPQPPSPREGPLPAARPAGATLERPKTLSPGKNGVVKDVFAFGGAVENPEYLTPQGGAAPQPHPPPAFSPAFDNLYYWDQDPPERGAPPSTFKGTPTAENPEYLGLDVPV", "settings": "2 h, kinase ERBB2/HER2; read-out: % Enzyme Activity (relative to DMSO controls)"}, "[4]": {"target": "T4, panel of 370 protein kinases (Homo sapiens, UniProt Q07912)", "T4 construct": "purchased Reaction Biology Corporation (assay service)", "settings": "2 h, kinase ACK1; read-out: % Enzyme Activity (relative to DMSO controls)"}, "[5]": {"target": "T5, panel of 370 protein kinases (Homo sapiens, UniProt Q96PN8)", "T5 construct": "purchased Reaction Biology Corporation (assay service)", "settings": "2 h, kinase TSSK3/STK22C; read-out: % Enzyme Activity (relative to DMSO controls)"}, "[6]": {"target": "T6, panel of 370 protein kinases (Homo sapiens, UniProt P00519)", "T6 construct": "purchased Reaction Biology Corporation (assay service)", "T6 sequence (P00519 whole entry)": "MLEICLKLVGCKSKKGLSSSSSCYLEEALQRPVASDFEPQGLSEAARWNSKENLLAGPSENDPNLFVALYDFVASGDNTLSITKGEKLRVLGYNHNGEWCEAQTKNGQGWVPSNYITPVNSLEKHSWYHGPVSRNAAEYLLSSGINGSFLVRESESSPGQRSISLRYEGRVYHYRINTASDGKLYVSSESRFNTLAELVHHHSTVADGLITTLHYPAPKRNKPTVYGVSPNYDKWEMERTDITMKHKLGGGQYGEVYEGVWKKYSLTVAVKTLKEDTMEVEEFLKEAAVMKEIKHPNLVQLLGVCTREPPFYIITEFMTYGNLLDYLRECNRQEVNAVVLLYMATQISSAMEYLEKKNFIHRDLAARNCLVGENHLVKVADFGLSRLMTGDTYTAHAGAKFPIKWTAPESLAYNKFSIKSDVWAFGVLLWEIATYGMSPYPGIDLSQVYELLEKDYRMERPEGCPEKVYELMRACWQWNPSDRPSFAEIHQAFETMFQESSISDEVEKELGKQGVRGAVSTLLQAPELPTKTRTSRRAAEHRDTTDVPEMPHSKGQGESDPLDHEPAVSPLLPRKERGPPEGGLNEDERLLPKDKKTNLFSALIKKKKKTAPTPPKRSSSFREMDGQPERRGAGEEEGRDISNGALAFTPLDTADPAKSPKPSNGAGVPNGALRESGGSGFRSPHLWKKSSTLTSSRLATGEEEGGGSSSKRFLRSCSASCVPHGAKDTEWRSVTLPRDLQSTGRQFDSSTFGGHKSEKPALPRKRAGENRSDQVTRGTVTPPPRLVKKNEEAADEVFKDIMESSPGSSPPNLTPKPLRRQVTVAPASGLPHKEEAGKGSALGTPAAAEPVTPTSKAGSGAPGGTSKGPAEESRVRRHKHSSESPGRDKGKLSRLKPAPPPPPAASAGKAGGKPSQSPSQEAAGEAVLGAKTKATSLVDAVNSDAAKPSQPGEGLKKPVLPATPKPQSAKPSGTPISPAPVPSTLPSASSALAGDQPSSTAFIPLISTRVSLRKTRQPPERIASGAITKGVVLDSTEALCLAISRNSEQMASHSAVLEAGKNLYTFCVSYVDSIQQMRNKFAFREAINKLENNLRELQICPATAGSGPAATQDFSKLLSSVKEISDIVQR", "settings": "2 h, kinase ABL1; read-out: % Enzyme Activity (relative to DMSO controls)"}, "[7]": {"target": "T7, panel of 370 protein kinases (Homo sapiens, UniProt Q9BYP7)", "T7 construct": "purchased Reaction Biology Corporation (assay service)", "settings": "2 h, kinase WNK3; read-out: % Enzyme Activity (relative to DMSO controls)"}, "[8]": {"target": "T8, panel of 370 protein kinases (Homo sapiens, UniProt O96013)", "T8 construct": "purchased Reaction Biology Corporation (assay service)", "settings": "2 h, kinase PAK4; read-out: % Enzyme Activity (relative to DMSO controls)"}, "[9]": {"target": "T9, panel of 370 protein kinases (Homo sapiens, UniProt Q5TCX8)", "T9 construct": "purchased Reaction Biology Corporation (assay service)", "settings": "2 h, kinase MLK4; read-out: % Enzyme Activity (relative to DMSO controls)"}, "[10]": {"target": "T10, panel of 370 protein kinases (Homo sapiens, UniProt P80192)", "T10 construct": "purchased Reaction Biology Corporation (assay service)", "settings": "2 h, kinase MLK1/MAP3K9; read-out: % Enzyme Activity (relative to DMSO controls)"}, "[11]": {"target": "T11, panel of 370 protein kinases (Homo sapiens, UniProt P07333)", "T11 construct": "purchased Reaction Biology Corporation (assay service)", "T11 sequence (P07333 20-972)": "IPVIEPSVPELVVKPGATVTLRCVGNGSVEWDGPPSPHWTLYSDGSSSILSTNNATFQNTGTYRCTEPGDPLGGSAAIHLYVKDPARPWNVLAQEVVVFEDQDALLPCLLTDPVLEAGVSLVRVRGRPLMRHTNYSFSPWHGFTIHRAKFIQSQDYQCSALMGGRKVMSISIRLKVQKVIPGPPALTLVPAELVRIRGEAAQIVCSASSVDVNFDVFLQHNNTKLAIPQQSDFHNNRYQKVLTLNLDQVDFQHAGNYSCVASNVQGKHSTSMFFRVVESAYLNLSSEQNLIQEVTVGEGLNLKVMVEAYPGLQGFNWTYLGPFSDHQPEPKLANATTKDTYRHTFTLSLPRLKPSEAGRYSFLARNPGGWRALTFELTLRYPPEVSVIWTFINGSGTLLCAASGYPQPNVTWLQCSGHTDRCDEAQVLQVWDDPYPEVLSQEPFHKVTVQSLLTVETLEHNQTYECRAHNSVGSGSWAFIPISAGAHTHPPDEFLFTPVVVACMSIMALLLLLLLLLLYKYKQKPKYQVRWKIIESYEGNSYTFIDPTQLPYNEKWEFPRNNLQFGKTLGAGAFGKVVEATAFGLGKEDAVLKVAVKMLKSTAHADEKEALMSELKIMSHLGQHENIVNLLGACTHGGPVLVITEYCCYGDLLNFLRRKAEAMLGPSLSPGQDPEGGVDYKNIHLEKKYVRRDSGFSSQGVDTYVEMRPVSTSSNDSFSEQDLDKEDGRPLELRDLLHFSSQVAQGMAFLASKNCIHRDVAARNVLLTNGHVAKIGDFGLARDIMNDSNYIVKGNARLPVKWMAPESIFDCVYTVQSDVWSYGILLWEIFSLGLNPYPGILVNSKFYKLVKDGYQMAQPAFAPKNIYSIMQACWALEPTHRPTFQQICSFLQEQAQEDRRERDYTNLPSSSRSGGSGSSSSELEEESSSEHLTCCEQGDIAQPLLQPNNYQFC", "settings": "2 h, kinase FMS; read-out: % Enzyme Activity (relative to DMSO controls)"}, "[12]": {"target": "T12, panel of 370 protein kinases (Homo sapiens, UniProt O43781)", "T12 construct": "purchased Reaction Biology Corporation (assay service)", "settings": "2 h, kinase DYRK3; read-out: % Enzyme Activity (relative to DMSO controls)"}, "[13]": {"target": "T13, panel of 370 protein kinases (Homo sapiens, UniProt Q02779)", "T13 construct": "purchased Reaction Biology Corporation (assay service)", "T13 sequence (Q02779 whole entry)": "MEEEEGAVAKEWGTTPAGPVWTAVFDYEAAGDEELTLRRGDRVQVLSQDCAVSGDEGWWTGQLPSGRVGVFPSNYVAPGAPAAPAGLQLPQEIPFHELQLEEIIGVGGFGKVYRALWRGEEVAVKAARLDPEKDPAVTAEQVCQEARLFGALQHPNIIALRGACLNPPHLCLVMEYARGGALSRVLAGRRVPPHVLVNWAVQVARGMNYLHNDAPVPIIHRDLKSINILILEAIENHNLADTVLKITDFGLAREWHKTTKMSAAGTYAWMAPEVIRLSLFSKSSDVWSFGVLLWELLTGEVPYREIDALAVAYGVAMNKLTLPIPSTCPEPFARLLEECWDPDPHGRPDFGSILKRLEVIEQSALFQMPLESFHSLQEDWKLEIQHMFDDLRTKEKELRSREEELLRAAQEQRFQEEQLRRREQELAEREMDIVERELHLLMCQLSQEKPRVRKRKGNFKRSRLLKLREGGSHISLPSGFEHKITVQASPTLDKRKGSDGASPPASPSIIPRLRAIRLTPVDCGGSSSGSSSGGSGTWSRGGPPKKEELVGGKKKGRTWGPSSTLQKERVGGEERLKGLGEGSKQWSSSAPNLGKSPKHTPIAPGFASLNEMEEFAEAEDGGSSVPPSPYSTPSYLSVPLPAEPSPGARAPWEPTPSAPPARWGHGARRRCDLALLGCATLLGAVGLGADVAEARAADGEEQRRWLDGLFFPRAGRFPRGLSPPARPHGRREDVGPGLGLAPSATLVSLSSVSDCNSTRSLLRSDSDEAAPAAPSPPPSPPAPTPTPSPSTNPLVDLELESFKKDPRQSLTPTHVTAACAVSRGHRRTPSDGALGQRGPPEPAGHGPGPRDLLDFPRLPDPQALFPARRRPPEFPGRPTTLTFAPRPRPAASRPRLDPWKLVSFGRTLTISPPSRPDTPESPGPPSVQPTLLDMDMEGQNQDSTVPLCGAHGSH", "settings": "2 h, kinase MLK2/MAP3K10; read-out: % Enzyme Activity (relative to DMSO controls)"}, "[14]": {"target": "T14, panel of 370 protein kinases (Homo sapiens, UniProt P24941)", "T14 construct": "purchased Reaction Biology Corporation (assay service)"}, "[15]": {"target": "T15, panel of 370 protein kinases (Homo sapiens, UniProt P49840)", "T15 construct": "purchased Reaction Biology Corporation (assay service)", "settings": "2 h, kinase GSK3a; read-out: % Enzyme Activity (relative to DMSO controls)"}, "[16]": {"target": "T16, panel of 370 protein kinases (Homo sapiens, UniProt Q96NX5)", "T16 construct": "purchased Reaction Biology Corporation (assay service)", "settings": "2 h, kinase CAMK1g; read-out: % Enzyme Activity (relative to DMSO controls)"}, "[17]": {"target": "T17, panel of 370 protein kinases (Homo sapiens, UniProt P49336)", "T17 construct": "purchased Reaction Biology Corporation (assay service)", "T17 sequence (P49336 whole entry)": "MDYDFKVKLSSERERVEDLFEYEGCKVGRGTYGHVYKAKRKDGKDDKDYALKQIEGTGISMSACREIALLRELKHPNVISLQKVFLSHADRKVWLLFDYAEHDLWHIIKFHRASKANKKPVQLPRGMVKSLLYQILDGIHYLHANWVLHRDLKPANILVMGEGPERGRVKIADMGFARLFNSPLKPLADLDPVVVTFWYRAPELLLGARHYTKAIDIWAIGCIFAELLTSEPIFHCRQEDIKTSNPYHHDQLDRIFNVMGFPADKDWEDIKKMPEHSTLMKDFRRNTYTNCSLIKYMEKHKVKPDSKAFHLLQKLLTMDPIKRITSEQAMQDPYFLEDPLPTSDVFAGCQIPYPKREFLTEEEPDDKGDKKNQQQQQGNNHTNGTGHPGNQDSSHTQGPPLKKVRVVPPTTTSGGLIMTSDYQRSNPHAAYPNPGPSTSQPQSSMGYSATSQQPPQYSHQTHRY", "settings": "kinase CDK8/cyclin C"}, "[18]": {"target": "T18, panel of 370 protein kinases (Homo sapiens, UniProt P41743)", "T18 construct": "purchased Reaction Biology Corporation (assay service)", "settings": "2 h, kinase PKCiota; read-out: % Enzyme Activity (relative to DMSO controls)"}, "[19]": {"target": "T19, panel of 370 protein kinases (Homo sapiens, UniProt P53671)", "T19 construct": "purchased Reaction Biology Corporation (assay service)", "settings": "2 h, kinase LIMK2; read-out: % Enzyme Activity (relative to DMSO controls)"}, "[20]": {"target": "T20, panel of 370 protein kinases (Homo sapiens, UniProt P06493)", "T20 construct": "purchased Reaction Biology Corporation (assay service)", "T20 sequence (P06493 whole entry)": "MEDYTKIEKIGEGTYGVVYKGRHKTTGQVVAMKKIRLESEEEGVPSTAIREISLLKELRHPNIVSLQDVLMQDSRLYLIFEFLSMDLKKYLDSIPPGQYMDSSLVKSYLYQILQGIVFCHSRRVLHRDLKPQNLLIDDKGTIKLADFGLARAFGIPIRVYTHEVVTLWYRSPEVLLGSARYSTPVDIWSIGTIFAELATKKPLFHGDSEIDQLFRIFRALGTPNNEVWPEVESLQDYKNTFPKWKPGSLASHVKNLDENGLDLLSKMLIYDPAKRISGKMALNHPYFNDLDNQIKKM", "settings": "2 h, read-out: % Enzyme Activity (relative to DMSO controls)"}, "[21]": {"target": "T21, panel of 370 protein kinases (Homo sapiens, UniProt Q6P3R8)", "T21 construct": "purchased Reaction Biology Corporation (assay service)", "settings": "2 h, kinase NEK5; read-out: % Enzyme Activity (relative to DMSO controls)"}}, "note": "Values joined by “and” are separate entries in the source; they are usually repeats but may differ in a detail not shown here. Equal values may be shown once. Read-outs that look alike come from different tables or passages of the source.", "data": [{"smiles": "CCN1CCN(C(=O)c2ccc(Nc3ncc(F)c(-c4ccc5nc(N(C)C)sc5c4)n3)nc2)CC1", "note": "[YK-2-69]", "values": [{"measurement": "remaining activity at 1 µM", "setting": "[1]", "value": 97.2, "unit": "%"}, {"measurement": "remaining activity at 1 µM", "setting": "[2]", "value": 96.1, "unit": "%"}, {"measurement": "remaining activity at 1 µM", "setting": "[3]", "value": 100, "unit": "%"}, {"measurement": "remaining activity at 1 µM", "setting": "[4]", "value": 101, "unit": "%"}, {"measurement": "remaining activity at 1 µM", "setting": "[5]", "value": 94.6, "unit": "%"}, {"measurement": "remaining activity at 1 µM", "setting": "[6]", "value": 85, "unit": "%"}, {"measurement": "remaining activity at 1 µM", "setting": "[7]", "value": 98.9, "unit": "%"}, {"measurement": "remaining activity at 1 µM", "setting": "[8]", "value": 108, "unit": "%"}, {"measurement": "remaining activity at 1 µM", "setting": "[9]", "value": 104, "unit": "%"}, {"measurement": "remaining activity at 1 µM", "setting": "[10]", "value": 111, "unit": "%"}, {"measurement": "remaining activity at 1 µM", "setting": "[11]", "value": 94.5, "unit": "%"}, {"measurement": "remaining activity at 1 µM", "setting": "[12]", "value": 50.9, "unit": "%"}, {"measurement": "remaining activity at 1 µM", "setting": "[13]", "value": 81.7, "unit": "%"}, {"measurement": "% Enzyme Activity (relative to DMSO controls)", "setting": "[14]; kinase CDK2/CYCLIN A", "value": "90.79% and 87.87%"}, {"measurement": "% Enzyme Activity (relative to DMSO controls)", "setting": "[14]; kinase CDK2/CYCLIN E", "value": "95.30% and 94.87%"}, {"measurement": "% Enzyme Activity (relative to DMSO controls)", "setting": "[14]; kinase CDK2/Cyclin A1", "value": "80.25% and 75.26%"}, {"measurement": "% Enzyme Activity (relative to DMSO controls)", "setting": "[14]; kinase CDK2/cyclin E2", "value": "104.31% and 100.73%"}, {"measurement": "% Enzyme Activity (relative to DMSO controls)", "setting": "[14]; kinase CDK2/cyclin O", "value": "78.97% and 75.52%"}, {"measurement": "remaining activity at 1 µM", "setting": "[15]", "value": 42.3, "unit": "%"}, {"measurement": "remaining activity at 1 µM", "setting": "[16]", "value": 56.8, "unit": "%"}, {"measurement": "% Enzyme Activity (relative to DMSO controls)", "setting": "[17]", "value": "57.28% and 56.07%"}, {"measurement": "remaining activity at 1 µM", "setting": "[18]", "value": 84.8, "unit": "%"}, {"measurement": "remaining activity at 1 µM", "setting": "[19]", "value": 95, "unit": "%"}, {"measurement": "remaining activity at 1 µM", "setting": "[20]; kinase CDK1/cyclin A", "value": 116, "unit": "%"}, {"measurement": "remaining activity at 1 µM", "setting": "[20]; kinase CDK1/cyclin B", "value": 119, "unit": "%"}, {"measurement": "remaining activity at 1 µM", "setting": "[20]; kinase CDK1/cyclin E", "value": 103, "unit": "%"}, {"measurement": "remaining activity at 1 µM", "setting": "[21]", "value": 72.1, "unit": "%"}]}]}
